In patent US20130109693A1, “DERIVATIVES OF PYRIDO [3,2-D] PYRIMIDINE, METHODS FOR PREPARATION THEREOF AND THERAPEUTIC USES THEREOF” (UNIVERSITE D'ORLEANS, priority 2010, published 2013):

Tests used:
[1] = tested on: MDA-MB 231; experiment: Cytotoxicity on human cells, MDA-MB 231 (breast); type: cell-based; settings: MDA-MB-231, human cells, exposed 24 h and 48 h, 0.1 to 25 μM
Protocol: (§1) […] Dosages on Human cells (Huh7, Caco, MDA-MB 231, HCT 116, PC3, NCl, Fibroblast)
(§2) Cytotoxicity: This method is based on an automated imaging analysis. 4.10^3 cells were cultivated on 96-well plates and thus left for 24 hours so that they may bind, be distributed and proliferate.
(§3) These cells were then exposed for 24 h and 48 h to increasing concentrations of the compounds of the invention, from 0.1 to 25 μM in a final volume of 80 μL of culture medium. The cells are then set with a 4% paraformaldehyde solution and the nuclei are colored with Hoechst 3342 and counted according to automated imaging quantification.
(§4) All the cell lines were cultivated in a DMEM or RPMI (Invitrogen) medium. All these media were completed with antibiotics (penicillin-streptomycin)(Lonza) and 10% by volume of foetal calf serum (Invitrogen). The cells were cultivated at 37° C. with 5% of CO2. The treatments with the molecules to be tested were carried out with increasing concentrations. […] The control experiments were also conducted by using suitable dilutions of DMSO (maximum 1% DMSO). Cell viability was determined by measuring the reduction of MTS as described in the article of Ribas J, Boix J. (2004). Cell differentiation caspase inhibition and macromolecular synthesis blockage but not BCL-2 or BCL-XL proteins protect SH-SY5Y cells from apoptosis triggered by two CDK inhibitory drugs. Exp. Cell Res., 295: 9-24.

[2] = tested on: Caco; experiment: Cytotoxicity on human cells, Caco (colon); type: cell-based; settings: exposed 24 h and 48 h, 0.1 to 25 μM
Protocol: as §1, §2, §3, §4

[3] = tested on: fibroblast; experiment: Cytotoxicity on human cells, fibroblast; type: cell-based; settings: exposed 24 h and 48 h, 0.1 to 25 μM
Protocol: as §1, §2, §3, §4

[4] = molecular target: T1, CDK5 (Homo sapiens, UniProt Q00535); experiment: CDK5 kinase inhibition (histone H1, [γ-33P] ATP, buffer C); type: biochemical; settings: 15 μM ATP, 30° C., recombinant; read-out: IC50 Kinases CDK5
T1 construct: made in house
T1 sequence (Q00535 whole entry): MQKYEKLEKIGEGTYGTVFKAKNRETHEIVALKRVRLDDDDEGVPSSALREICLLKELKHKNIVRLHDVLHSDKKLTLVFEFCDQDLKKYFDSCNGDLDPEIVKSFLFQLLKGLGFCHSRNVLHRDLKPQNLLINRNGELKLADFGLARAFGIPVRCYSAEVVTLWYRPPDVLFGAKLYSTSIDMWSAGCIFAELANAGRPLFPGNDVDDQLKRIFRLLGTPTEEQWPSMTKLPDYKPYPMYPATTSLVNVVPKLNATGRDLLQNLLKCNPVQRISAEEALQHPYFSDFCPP
T1 sequence (Q15078 99-307 partner limits assumed): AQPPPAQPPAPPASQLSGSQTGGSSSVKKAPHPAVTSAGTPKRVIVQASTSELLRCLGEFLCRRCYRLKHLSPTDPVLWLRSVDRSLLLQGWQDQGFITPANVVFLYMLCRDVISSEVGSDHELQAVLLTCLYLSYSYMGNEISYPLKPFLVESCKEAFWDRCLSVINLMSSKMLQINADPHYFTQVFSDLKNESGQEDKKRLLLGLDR
Protocol: (§5) The activities for inhibiting protein kinases of the compounds of the invention are tested according to the following general procedure:
Buffer C: 60 mM β-glycerophosphate, 15 mM p-nitrophenyl-phosphate, 25 mM Mops (pH 7.2), 5 mM EGTA, 15 mM MgCl2, 1 mM DTT, 1 mM of sodium vanadate
(§6) The kinase activities are dosed in buffers A or C, at 30° C., at a final concentration of ATP of 15 μM. The values of the blanks were subtracted and the activities are expressed as a % of the maximum activity, i.e. in the absence of inhibitors. The controls were carried out with suitable dilutions of DMSO.
CDK5 (humane, recombinant) was prepared as described earlier (Leclerc, S.; Garnier, M.; Hoessel, R.; Marko, D.; Bibb, J. A.; Snyder, G. L.; Greengard, P.; Biernat, J.; Mandelkow, E.-M.; Eisenbrand, G.; Meijer, L. Indirubins inhibit glycogen synthase kinase-3β and CDK5/p25, two kinases involved in abnormal tau phosphorylation in Alzheimer's disease—A property common to most CDK inhibitors? J. Biol. Chem. 2001, 276, 251-260; Bach S, Knockaert M, Reinhardt J, Lozach O, Schmitt S, Baratte B et al. (2005). Roscovitine targets, protein kinases and pyridoxal kinase. J. Biol Chem 280: 31208-31219). Its kinase activity was analyzed in the buffer C, with 1 mg of histone H1/mL, in the presence of 15 μM of [γ-^33P] ATP (3,000 Ci/mmol; 10 mCi/mL) in a final volume of 30 μl. After 30 mins of incubation at 30° C., 25 μl of supernatant aliquots were deposited on 2.5×3 cm pieces of phosphocellulose Whatman P81 paper, and after 20 seconds, the filters were washed five times (for at least 5 minutes every time) in a solution of 10 mL phosphoric acid/liter of water. The wet filters were counted in the presence of 1 mL of ACS scintillator fluid (Amersham).

[5] = molecular target: GSK-3αβ; experiment: GSK-3αβ kinase inhibition (GS-1 substrate, buffer A); type: biochemical; settings: 15 μM ATP, 30° C., native, pig brain; read-out: IC50 Kinases GSK3
Protocol: as §5
(§7) Buffer A: 10 mM MgCl2, 1 mM EGTA, 1 mM DTT, 25 mM Tris-HCl pH 7.5 and 50 μg heparin/mL.
as §6
GSK-3αβ (from pig brain, native) was assayed by using a specific substrate of GSK-3 (GS-1: […]pEDEEE)(Sp represents a phosphorylated serine) (Primot, A., Baratte, B., Gompel, M., Borgne, A., Liabeuf, S., Romette, J. L., Costantini, F. and Meijer, L., 2000. Purification of GSK-3 by affinity chromatography on immobilized axin. Protein Expr. & Purif. 20 (3), 394-404). GS-1 was synthesized by Millegen (Labège, France). Its kinase activity was analyzed in the buffer A, with 1 mg of histone H1/mL, in the presence of 15 μM of [γ-^33P] ATP (3,000 Ci/mmol; 10 mCi/mL) in a final volume of 30 μl. After 30 mins of incubation at 30° C., 25 μl of supernatant aliquots were deposited on 2.5×3 cm pieces of phosphocellulose Whatman P81papier, and after 20 seconds, the filters were washed five times (for at least 5 minutes every time) in a solution of 10 mL of phosphoric acid/liter of water. The wet filters were counted in the presence of 1 mL of ACS scintillator fluid (Amersham).

[6] = tested on: HCT 116; experiment: Cytotoxicity on human cells, HCT 116 (colon); type: cell-based; settings: exposed 24 h and 48 h, 0.1 to 25 μM
Protocol: as §1, §2, §3, §4

[7] = tested on: PC3; experiment: Cytotoxicity on human cells, PC3 (prostate); type: cell-based; settings: PC-3, human cells, exposed 24 h and 48 h, 0.1 to 25 μM
Protocol: as §1, §2, §3, §4

[8] = tested on: Huh7; experiment: Cytotoxicity on human cells, Huh7 (liver); type: cell-based; settings: Huh-7, human cells, exposed 24 h and 48 h, 0.1 to 25 μM
Protocol: as §1, §2, §3, §4

[9] = tested on: NCI; experiment: Cytotoxicity on human cells, NCI (lung); type: cell-based; settings: exposed 24 h and 48 h, 0.1 to 25 μM
Protocol: as §1, §2, §3, §4

[10] = molecular target: DYRK1A (Homo sapiens, UniProt Q13627); experiment: DYRK1A kinase inhibition (Woodtide substrate, buffer A); type: biochemical; settings: 15 μM ATP, 30° C., recombinant GST fusion; read-out: IC50 Kinases DYRK1A
Protocol: as §5, §7, §6

Row | melting point [°C] | IC50 [4] [µM] | IC50 [5] [µM] | IC50 [10] [µM] | Compound | IC50 [1] [µM] | IC50 [2] [µM] | IC50 [3] [µM] | IC50 [6] [µM] | IC50 [7] [µM] | IC50 [8] [µM] | IC50 [9] [µM]
1 | 231 to 232 | 5.1 | > 100 | 16 | Oc1ccc(-c2ncc3ncc(Cl)cc3n2)cc1 [Compound 17, 7-Chloro-2-(4-hydroxyphenyl)-pyrido[3,2-d]pyrimidine] | > 25 | > 25 | > 25 | > 25 | > 25 | > 25 | > 25
2 | – | 0.12 | 26 | 0.93 | Oc1ccc(-c2cnc3cnc(-c4ccc(O)cc4)nc3c2)cc1 [Compound 20, 2,7-Di-(4-hydroxyphenyl)-pyrido[3,2-d]pyrimidine] | > 25 | 7 | > 25 | 12 | 25 | 12 | > 25
3 | 264 to 265 | 2.6 | > 100 | 3.4 | Oc1cccc(-c2cnc3cnc(-c4cccc(O)c4)nc3c2)c1 [Compound 21, 2,7-Di-(3-hydroxyphenyl)-pyrido[3,2-d]pyrimidine] | > 25 | 20 | > 25 | > 25 | 25 | > 25 | > 25
4 | 239 to 240 | > 10 | > 10 | > 10 | Oc1ccccc1-c1cnc2cnc(-c3ccccc3O)nc2c1 [Compound 22, 2,7-Di-(2-hydroxyphenyl)-pyrido[3,2-d]pyrimidine] | > 25 | > 25 | > 25 | > 25 | > 25 | > 25 | 2
5 | 256 to 257 | 0.11 | > 100 | 2.4 | Oc1ccc(-c2ncc3ncc(-c4cccc(O)c4)cc3n2)cc1 [Compound 23, 2-(4-Hydroxyphenyl)-7-(3-hydroxyphenyl)-pyrido[3,2-d]pyrimidine] | > 25 | 4 | > 25 | 7 | 9 | 10 | 20
6 | 278 to 279 | 0.09 | ≥ 100 | 2.7 | Oc1ccc(-c2ncc3ncc(-c4ccccc4O)cc3n2)cc1 [Compound 24, 2-(4-Hydroxyphenyl)-7-(2-hydroxyphenyl)-pyrido[3,2-d]pyrimidine] | > 25 | 20 | > 25 | 20 | 20 | 25 | > 25
7 | 203 to 204 | 0.97 | ≥ 100 | 24 | Oc1ccc(-c2ncc3ncc(-c4ccc(C(F)(F)F)cc4)cc3n2)cc1 [Compound 25, 2-(4-Hydroxyphenyl)-7-(4-trifluoromethylphenyl)-pyrido[3,2-d]pyrimidine] | > 25 | > 25 | > 25 | > 25 | > 25 | 25 | 20
8 | 306 to 307 | 0.48 | > 100 | > 10 | CS(=O)(=O)c1ccc(-c2cnc3cnc(-c4ccc(O)cc4)nc3c2)cc1 [Compound 26, 2-(4-Hydroxyphenyl)-7-(4-methanesulfonylphenyl)-pyrido[3,2-d]pyrimidine] | > 25 | > 25 | > 25 | > 25 | > 25 | > 25 | > 25
9 | – | – | – | > 10 | Oc1ccc(-c2ncc3ncc(-c4ccoc4)cc3n2)cc1 [Compound 36] | – | – | 20 | 10 | > 25 | > 25 | –
10 | 126 to 127 | – | – | – | COc1ccc(Nc2cnc3c(NCc4ccccc4)nc(NCCO)nc3c2)cc1 [Compound 83, 4-Benzylamino-2-(2-hydroxyethylamino)-7-(4-methoxyphenylamino)-pyrido[3,2-d]pyrimidine] | 10 | 8 | 15 | 5 | 12 | 5 | 6
11 | 110 to 111 | – | – | – | COc1cccc(Nc2cnc3c(NCc4ccccc4)nc(NCCO)nc3c2)c1 [Compound 84, 4-Benzylamino-2-(2-hydroxyethylamino)-7-(3-methoxyphenylamino)-pyrido[3,2-d]pyrimidine] | 15 | 4 | 5 | 5 | 5 | 3 | 3
12 | 141 to 142 | – | – | – | OCCNc1nc(NCc2ccccc2)c2ncc(Nc3ncccn3)cc2n1 [Compound 87, 4-Benzylamino-2-(2-hydroxyethylamino)-7-(2-pyrimidinylamino)-pyrido[3,2-d]pyrimidine] | 15 | 8 | 15 | 6 | 15 | 7 | 6
13 | 154 to 155 | – | – | – | OCCNc1nc(NCc2ccccc2)c2ncc(Nc3cnc4ccccc4c3)cc2n1 [Compound 89, 4-Benzylamino-2-(2-hydroxyethylamino)-7-(3-quinolinamino)-pyrido[3,2-d]pyrimidine] | 3 | 2 | 2 | 0.5 | 3 | 3 | 2
14 | 203 to 204 | – | – | – | OCCNc1nc(NCc2ccccc2)c2ncc(Nc3ccc4ncccc4c3)cc2n1 [Compound 90, 4-Benzylamino-2-(2-hydroxyethylamino)-7-(6-quinolinamino)-pyrido[3,2-d]pyrimidine] | 4 | 4 | 1.5 | 1.2 | 5 | 2 | 2
